The values that follow come from patent US20260183274A1, “PDK1 REGULATORY COMPOUND AND COMPOSITION CONTAINING THE SAME” (PROVIBIO CO., LTD., priority 2024, published 2026).

One series concerns the target T1, PDK1 (Homo sapiens, UniProt O15530).
T1 construct: purchased Promega V9681
T1 sequence (O15530 1-556): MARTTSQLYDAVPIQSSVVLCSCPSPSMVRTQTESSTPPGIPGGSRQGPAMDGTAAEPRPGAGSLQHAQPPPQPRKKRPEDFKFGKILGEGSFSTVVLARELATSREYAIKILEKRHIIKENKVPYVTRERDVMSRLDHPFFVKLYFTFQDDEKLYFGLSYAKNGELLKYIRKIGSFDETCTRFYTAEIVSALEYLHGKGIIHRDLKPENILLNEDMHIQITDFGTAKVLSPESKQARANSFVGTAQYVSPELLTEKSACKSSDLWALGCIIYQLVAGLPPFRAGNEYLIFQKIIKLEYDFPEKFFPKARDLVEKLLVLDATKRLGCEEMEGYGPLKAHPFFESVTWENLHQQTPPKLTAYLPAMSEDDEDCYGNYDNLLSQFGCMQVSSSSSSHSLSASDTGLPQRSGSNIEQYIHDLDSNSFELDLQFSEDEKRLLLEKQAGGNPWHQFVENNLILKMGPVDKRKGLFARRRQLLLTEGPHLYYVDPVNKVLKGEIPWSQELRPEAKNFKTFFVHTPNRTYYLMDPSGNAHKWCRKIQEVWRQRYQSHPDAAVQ
The experiment in a line: PDK1 kinase activity inhibition, IC50 (in vitro kinase assay, luminescence). It is filed as biochemical. As to conditions: FIG. 4; read-out: IC50 for inhibiting PDK1 kinase activity. The protocol: As shown in the table below, this invention establishes an in vitro kinase assay system to quantitatively evaluate PDK1 kinase activity inhibition, and utilizes this system to compare and analyze the activity of new PDK1 inhibitor candidate compounds.
Specifically, after reacting ATP (100 μM), substrate (PDKtide, 0.5 μg/μL), and PDK1 enzyme (30 ng) at a specific concentration, the difference in ATP consumption between the group treated with each candidate compound and the DMSO control group was measured using luciferase-based luminescence signals (RLU).
Additionally, enzyme kinetics analysis was performed to quantitatively analyze the effect of the compounds of the present invention on the enzymatic activity of PDK1 (3-Phosphoinositide-dependent protein kinase-1) and to confirm the inhibition pattern.
Prior to the analysis, the half-maximal inhibitory concentration (IC50) values of the compounds GO15F, GO86, and GO88 of the present invention for inhibiting PDK1 kinase activity were determined, and the results are shown in FIG. 4.

The target of series [1] is T2, PDK1 (phosphoinositide-dependent kinase 1) (Homo sapiens, UniProt O15530).
T2 construct: endogenous in cells; host or cells: SU-DHL-8 (ATCC CRL-2961)
T2 sequence (O15530 1-556): T1 sequence (O15530 1-556)
The experiment in a line: PDK1 phosphorylation (pPDK1) by flow cytometry in SU-DHL-8 cells. The following applies: SU-DHL-8, 24 hours, vs control group, FIG. 3. It is filed as cell-based. The protocol:
After stabilizing the cells, the compound of the present invention was added, and the cells were cultured for 24 hours.
After drug treatment, the cells were harvested, and the Fc receptor blocking process was performed. The cells were then fixed and permeabilized using the Intracellular Staining Kit (Cat. No. BD554715) from BD Biosciences. Subsequently, the intracellular pPDK1 was stained using the pPDK1-PE fluorescently labeled antibody (BD Biosciences).
Referring to the figure, the vertical axis represents the phosphorylation level of PDK1 (phospho-PDK1 expression level), and the horizontal axis denotes the concentration-dependent treatment conditions of each compound.

Series [2] concerns Human Head and Neck cancer, Fadu. The series is described as follows: Relative cell viability CCK-8, Fadu. It is filed as cell-based. As to conditions: Fadu cells, relative to untreated cells. The protocol: Human-derived head and neck cancer cell line Fadu and osteosarcoma cell line Saos-2 were cultured in MEM medium containing 10% FBS, 100 U/mL penicillin, and 100 μg/mL streptomycin.
(§1) Following stabilization, the cells were harvested using Trypsin-EDTA treatment, centrifuged at 1,200 rpm for 3 minutes, the supernatant was removed, and the cells were resuspended in the same medium. They were then seeded into a 96-well plate (Costar 96-well cell culture plate, Corning) at 100 μL per well, and the conditions were adjusted as indicated in Table 5.
(§2) The cells were cultured in a 5% CO2 incubator at 37° C. for 24 hours, and after stabilization of the cells, each plate was washed with 200 μL of PBS per well and treated with 50 μL of culture medium per well.
(§3) After that, 10 μL of CCK-8 was added to each well, and the plate was incubated again at 37° C. in a 5% CO2 incubator for 2 hours.
(§4) In other words, when the survival rate of untreated cells (DMSO) is set at 100%, the relative cell survival rate in each group treated with the drug at different concentrations is indicated.

The test system of series [3] is Human Pancreas Adenocarcinoma cell line, AsPC-1. The series is described as follows: Relative cell viability CCK-8, AsPC-1. It is filed as cell-based. The following applies: 48 hours; for viability at 1 µM: ASPC1, 1 μM; for viability at 10 µM: ASPC1, 10 μM; for viability at 30 µM: ASPC1, 30 μM; for viability at 50 µM: ASPC1, 50 μM. How it is done:
Human-derived breast cancer cell line MCF-7, human-derived lung cancer cell line A549, human-derived colorectal cancer cell line HCT-116, human pancreatic cancer cell line AsPC-1, glioblastoma cell line A172, and melanoma cell line Malme-3M were obtained from the Korean Cell Bank. gastric cancer cell line SNU-719, and bladder cancer cell line T24 were cultured in RPMI-1640 medium containing 10% FBS.
as §1, §2, §3, §4

Series [4] has as its system Balb/c mice with induced pulmonary fibrosis. The experiment in a line: Bleomycin-induced pulmonary fibrosis animal model. In kind it is in vivo, mouse. As to conditions: vs BLM-treated group; for Collagen deposition (Masson's trichrome, Sirius red): FIG. 42; for Expression of α-SMA in lung tissue (IHC): FIG. 43. The text has this: To evaluate the therapeutic efficacy of the compound according to the present invention against pulmonary fibrosis, an animal model of pulmonary fibrosis induced by bleomycin intratracheal administration was established.
For this purpose, 8-week-old male Balb/c mice were subjected to general anesthesia using an inhalation anesthetic (2-3% isoflurane in oxygen), followed by disinfection of the neck region, skin incision, and exposure of the trachea.
Bleomycin (Sigma-Aldrich, USA) was directly administered into the trachea at a concentration of 5 mg/kg in a solution of 100 μL.
Two days prior to Bleomycin administration, the compound of the present invention or the comparative drug was administered intraperitoneally at the specified concentration and dose, and the administration was continued once daily for a total of 14 days.
The experimental groups included Normal, Bleomycin alone (BLM), and BLM plus the compound of the present invention (BLM+GO88, 0.2 mg/kg).
Ten days later, the mice were euthanized humanely using carbon dioxide gas, the trachea was incised, and PBS was injected into the trachea to remove blood from the lungs.
The lung tissue washed with PBS was excised, fixed in 4% paraformaldehyde solution for 24 hours, and then paraffin blocks and tissue sections were prepared. The prepared sections were subjected to pathological analysis using H&E, Masson's trichrome, and Sirius red staining.
Additionally, immunohistochemical (IHC) staining was performed for α-SMA (α-smooth muscle actin), an indicator of lung fibroblast activation.

Entries after “also recorded” stand apart in the source; their conditions may differ.

With `CC1(C)CN(CCCCCCCCCCCCC(=O)Nc2nc(N)c3[nH]cnc3n2)CCO1` [Compound 11, 12-[4-(2,2-dimethylmorpholin-4-yl)]dodecyl-N-(6-aminopurine-2-yl) carboxamide], the IC50 at PDK1 came out at 11.3 nM. Moreover, the “Inhibition of PDK1 phosphorylation (phospho-PDK1 expression level)” value (shortened to “Inhibition of PDK1 phosphorylation”) in series [1] (listed as GO86) was “stronger PDK1 inhibition; also recorded: high inhibitory effects even at low concentrations”. Moreover, the “Relative cell viability (%)” value is reported as 2.08% in series [2] (1 μM), 9.68% in series [2] (10 μM), 8.51% in series [2] (30 μM) and 4.78% in series [2] (50 μM).

In the case of `Nc1nc(NC(=O)CCCCCCCCCCCCN2CCN(CCO)CC2)nc2nc[nH]c12` [Compound 15, 12-[4-(2-hydroxyethyl)piperazin-1-yl]dodecyl-N-(6-aminopurine-2-yl) carboxamide], the viability at 1 µM was 40.9% in series [3] and 4.15% in series [2] (Homo sapiens, FaDu, 1 μM). Besides, the viability at 10 µM amounted to 42.8% in series [3] and 29.3% in series [2] (Homo sapiens, FaDu, 10 μM). Also, the viability at 30 µM in series [3] was 44.1%; in series [2] (Homo sapiens, FaDu, 30 μM) it was 41.5%. Moreover, the viability at 50 µM was found to be 41.5% in series [3] and 9.44% in series [2] (Homo sapiens, FaDu, 50 μM).

In the case of `Nc1ncccc1C(=O)NCCCCCCCCCCCCN1CCNCC1` [Compound 5, 2-Amino-N-(12-(piperazin-1-yl)dodecyl)-nicotinamide], the “Relative cell viability (%)” value in series [2] (10 μM, listed as GO78, 10 µM) is 6.63%; in series [2] (30 μM, listed as GO78, 30 µM) it was 4.93%; in series [2] (50 μM, listed as GO78, 50 µM), 0.99%. In series [2] (Homo sapiens, FaDu, 1 μM), the viability at 1 µM was found to be 4.18%.

With `Nc1ncccc1C(=O)NCCCCCCCCCCCCN1CCNCC1` [Compound 14, 2-Amino-N-(12-(piperazin-1-yl)dodecyl)nicotinamide], the IC50 at PDK1 was found to be 13 nM. Also, in series [1] (listed as GO88), the “Inhibition of PDK1 phosphorylation” value is “stronger PDK1 inhibition; also recorded: high inhibitory effects even at low concentrations”. In series [3], the viability at 1 µM turned out to be 43.1%, the viability at 10 µM worked out at 45.4%, the viability at 30 µM was 36.8% and the viability at 50 µM is 30.5%. Further, in series [2] (1 μM, listed as GO88, 1 µM), the “Relative cell viability (%)” value came to 7.05%. The “Relative cell viability (%)” value in series [2] (10 μM, listed as GO88, 10 µM) was found to be 73.25%. Besides, the “Relative cell viability (%)” value in series [2] (30 μM, listed as GO88, 30 µM) amounted to 57.64%. Besides, in series [2] (50 μM, listed as GO88, 50 µM), the “Relative cell viability (%)” value is listed as 7.08%. In addition, in series [4], the “Collagen deposition (Masson's trichrome, Sirius red)” value is given as “significantly reduced” and the “Expression of α-SMA in lung tissue (IHC)” value is reported as “significantly suppressed”.

As for `Nc1ncccc1C(=O)NCCCCCCCCCCCCN1CCOCC1` [Compound 2, 2-Amino-N-(12-morpholin-4-yl-dodecyl)-nicotinamide], the “Inhibition of PDK1 phosphorylation” value in series [1] (listed as GO48) is recorded as “stronger PDK1 inhibition; also recorded: high inhibitory effects even at low concentrations”.

Regarding `Nc1ncccc1C(=O)NCCCCCCCCCCCCF` [Compound 57, 2-Amino-N-(12-fluoro-dodecyl)-nicotinamide], on PDK1, the IC50 is 380 nM. Also, in series [1], the “Inhibition of PDK1 phosphorylation” value is “exhibited an inhibitory effect on PDK1 phosphorylation”. Besides, in series [4], the “Collagen deposition (Masson's trichrome, Sirius red)” value is listed as “significantly reduced” and the “Expression of α-SMA in lung tissue (IHC)” value is listed as “significantly suppressed”.

In general, IC50 refers to the concentration needed to halve the response being measured. One may read the viability as the share of living cells, or the viability signal relative to a control. A lower viability goes with more harm to the cells.
